Assay results from patent US20200299155A1, “BIOCIDAL COMPOSITIONS INCLUDING A PHOSPHONIUM QUATERNARY CATIONIC SURFACTANT AND METHODS FOR USING SAME” (Rhodia Operations, priority 2019, published 2020).

What was measured:
[1] = Physical compatibility studies (mixtures in vials, visual); type: physicochemical; conditions: for compatibility with VDPA copolymer: in the presence of VDPA copolymer
Method: A first set of samples was made by combining Didecyldimethylammonium chloride (DDAC) Ammonium Quaternary Cationic Surfactant, and Tributyl Tetradecyl Phosphonium Chloride (TTPC). These ingredients were combined in a 20 mL borosilicate vial with a plastic cap to a total volume of 10 mLs so that the final concentration of DDAC was 5 wt. % active ingredient and the final concentration of TTPC was 1 wt. % active ingredient. The total volume was achieved by mixing with tap water (WTW). Samples were mixed, capped, and shaken vigorously and allowed to sit at room temperature for up to 24 hours. […] All weight percent values in the examples are wt. % active ingredient.
Another test sample consisted of 20 wt. % THPS, 2 wt. % VDPA copolymer biopenetrant, 4 wt. % DDAC, 4 wt. % TTPC, and 35 wt. % Ethylene Glycol Monobutyl Ether (EGMBE, which was used as a mutual solvent) (wt. % active ingredients) and was mixed as were the samples of Example 1 and brought to a total volume of 13.9 mLs with tap water (WTW).
(§1) Two additional samples were made. One was TTPC aqueous solution (50 wt. % a.i.) which was TTPC alone with the balance water (labelled TTPC). The other sample was made of 95 wt. % TTPC aqueous solution (50 wt. % a.i.) combined with a 5 wt. % VDPA copolymer aqueous solution (50 wt. % a.i.)(labelled TTPC+ESL). Thus, the final concentration on an active ingredient basis was 47.5% wt. % TTPC and 2.5 wt. % VDPA copolymer with the balance water. This comparison was made to determine the compatibility of the mixture without mutual solvent.

[2] = Storage stability of TTPC+ESL mixture at different temperatures; type: physicochemical; conditions: −25° C.
Excerpt: as §1
However, the sample was frozen at −25° C. TTPC was also frozen at −25 C.

Pseudomonas aeruginosa = experiment: Biocidal efficacy study, Modified Robbins Device culture/biofilm; type: cell-based; conditions: 100 ppm dosed, FIG. 4
Method: To test biocidal efficacy of TTPC in the presence of VDPA anionic copolymer two additional samples were made. One was 50 wt. % TTPC (a.i.) alone with the balance water (labelled TTPC). The other was TTPC combined with VDPA copolymer with the balance water (labelled TTPC A) which was 47.5% TTPC (a.i.) and 2.5% VDPA copolymer biopenetrant. A standard biofilm was grown with Pseudomonas aeruginosa, a known biofilm former and General Heterotrophic Bacteria (GHB), and treated with either the TTPC or TTPC A Series samples. Pseudomonas aeruginosa was cultured in a media of tryptone soy broth and grown at room temperature with gentle stirring. This culture solution was slowly passed through a Modified Robbins Device (MRD) from Tyler Research for approximately 6 weeks to establish a robust biofilm. Once the film was established, 100 ppm of TTPC Series or TTPC A Series was dosed to the biofilms and the efficacy of the biocide on the microorganisms was measured as shown in FIG. 4.

Row | Compound | physical compatibility / appearance in tap water ([1]; balance tap water (WTW), room temperature, up to 24 hours) | compatibility with VDPA copolymer [1] | solubility in water ([1]; water) | state of sample at low temperature [2] | efficacy against planktonic bacteria (Pseudomonas aeruginosa)
1 | CCCCCCCCCC[N+](C)(C)CCCCCCCCCC.[Cl-] [DDAC, Didecyldimethylammonium chloride] | some cloudiness | will precipitate | sparingly soluble in water |  | 
2 | CCCCCCCCCCCCCC[P+](CCCC)(CCCC)CCCC.Cl [TTPC, tributyl-tetradecylphosphonium chloride] |  |  |  | frozen | effective
3 | alkyldimethylbenzylammonium chloride [ADBAC] |  | will precipitate |  |  | 
